Data: patent US20170008888A1 (KYORIN PHARMACEUTICAL CO., LTD., priority 2014, published 2017)

Assays:
Type in all cases: binding
ACK = biological target: T1, ACK (Homo sapiens, UniProt Q07912); experiment: Probe-based (AX9989) kinase profiling in Jurkat lysate: ACK; conditions: for inhibition at 10 µM: screening concentration 10 μM
T1 construct: screened for activity against several kinases in Jurkat cells; endogenous in cells; host or cells: Jurkat cell lysate
Experimental: (§1) In this example, potency of the compounds as ERK5 inhibitors was assessed, and the compounds were screened for activity against several kinases in Jurkat cells.
(§2) Jurkat cell pellets were resuspended in four volumes of lysis buffer (50 mM HEPES pH 7.5, 150 mM NaCl, 0.1% Triton-X-100, 1% v/v phosphatase, inhibitor cocktail II [EMD/Calbiochem, #524625]), sonicated using a tip, sonicator, and Dounce homogenized. Lysate was cleared by centrifugation, at 16,000 g for 15 min., was gel filtered (BioRad 10DG) and MnCl2 was then added to a final concentration of 20 mM before treatment with the test compound and probe labeling. […] All compound treatments were performed at room temperature.
(§3) Acyl phosphate ATP probe (AX9989) labeling reactions were performed at room temperature with a final probe concentration of 5 μM after a 15 min pre-incubation of lysate with a test compound. All reactions were performed in duplicate, using 445 μl/sample at 5 mg/ml. Probe-labeled lysates were denatured and reduced (6 M urea, 10 mM DTT, 65° C., 15 min), alkylated (40 mM iodoacetamide, 37° C., 30 min, and gel filtered (Sephadex G25) into 10 mM ammonium bicarbonate, 2 M urea, 5 mM methionine. The desalted protein mixture was digested with trypsin (0.015 mg/ml) for 1 hr at 37° C., and desthiobiotinylated peptides were captured using a […] high-capacity streptavidin resin (Thermo Scientific). Captured peptides were then washed extensively using 150 μl/wash with three different wash buffers: (A) 3 times with 1% triton, 0.5% tergitol, 1 mM EDTA in PBS; (B) 18 times with PBS; and (C) 8 times with HPLC grade water. Peptides were eluted from the streptavidin beads using two 35-μL washes of a 50% CH3CN/water mixture containing 0.1% TFA at room temperature.
(§4) Kinase active site peptides were identified and quantified using LC/MS. Percent inhibition was calculated as the normalized decrease in the ESI-MS fragment intensities of probe-labeled peptides in samples incubated with the test compound compared to those without.

AurB or AurC = experiment: Probe-based (AX9989) kinase profiling in Jurkat lysate: AurB or AurC
Experimental: as §1, §2, §3, §4

ERK5 = biological target: T2, ERK5 (Homo sapiens, UniProt Q13164); experiment: Probe-based (AX9989 acyl phosphate ATP probe) kinase profiling in Jurkat lysate: ERK5; conditions: for IC50: Jurkat lysate; for inhibition at 10 µM: screening concentration 10 μM
T2 construct: screened for activity against several kinases in Jurkat cells; endogenous in cells; host or cells: Jurkat cell lysate
T2 sequence (Q13164 whole entry): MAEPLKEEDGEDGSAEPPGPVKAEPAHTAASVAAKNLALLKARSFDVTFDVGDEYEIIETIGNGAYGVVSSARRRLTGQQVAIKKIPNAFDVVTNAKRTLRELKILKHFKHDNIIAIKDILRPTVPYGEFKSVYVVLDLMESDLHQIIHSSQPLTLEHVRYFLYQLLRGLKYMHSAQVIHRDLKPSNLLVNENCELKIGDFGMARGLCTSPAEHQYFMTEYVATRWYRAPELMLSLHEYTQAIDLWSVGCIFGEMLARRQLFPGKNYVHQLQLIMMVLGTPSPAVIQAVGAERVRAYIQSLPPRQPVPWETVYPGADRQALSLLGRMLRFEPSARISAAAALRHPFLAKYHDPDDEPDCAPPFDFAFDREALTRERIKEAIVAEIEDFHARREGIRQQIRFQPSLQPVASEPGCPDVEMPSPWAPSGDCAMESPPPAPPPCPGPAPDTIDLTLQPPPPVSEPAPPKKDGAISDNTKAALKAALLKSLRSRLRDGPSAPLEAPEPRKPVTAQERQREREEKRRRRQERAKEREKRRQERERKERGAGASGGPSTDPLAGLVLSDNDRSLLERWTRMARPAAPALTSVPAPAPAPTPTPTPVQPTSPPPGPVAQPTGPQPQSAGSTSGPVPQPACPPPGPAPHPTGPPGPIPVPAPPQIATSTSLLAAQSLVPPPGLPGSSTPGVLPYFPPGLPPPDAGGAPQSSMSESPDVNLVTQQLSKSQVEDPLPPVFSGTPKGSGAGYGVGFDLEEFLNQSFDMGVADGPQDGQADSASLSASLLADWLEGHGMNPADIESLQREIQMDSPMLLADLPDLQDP
Experimental: as §1, §2, §3, §4
ERK5 IC50 values were calculated from the percent inhibition and the screening concentration.

AMPKa1 or AMPKa2 = experiment: Probe-based (AX9989) kinase profiling in Jurkat lysate: AMPKa1 or AMPKa2
Experimental: as §1, §2, §3, §4

JAK1 = biological target: T3, JAK1 (Homo sapiens, UniProt P23458); experiment: Probe-based (AX9989) kinase profiling in Jurkat lysate: JAK1; conditions: for inhibition at 10 µM: screening concentration 10 μM
T3 construct: screened for activity against several kinases in Jurkat cells; endogenous in cells; host or cells: Jurkat cell lysate
T3 sequence (P23458 whole entry): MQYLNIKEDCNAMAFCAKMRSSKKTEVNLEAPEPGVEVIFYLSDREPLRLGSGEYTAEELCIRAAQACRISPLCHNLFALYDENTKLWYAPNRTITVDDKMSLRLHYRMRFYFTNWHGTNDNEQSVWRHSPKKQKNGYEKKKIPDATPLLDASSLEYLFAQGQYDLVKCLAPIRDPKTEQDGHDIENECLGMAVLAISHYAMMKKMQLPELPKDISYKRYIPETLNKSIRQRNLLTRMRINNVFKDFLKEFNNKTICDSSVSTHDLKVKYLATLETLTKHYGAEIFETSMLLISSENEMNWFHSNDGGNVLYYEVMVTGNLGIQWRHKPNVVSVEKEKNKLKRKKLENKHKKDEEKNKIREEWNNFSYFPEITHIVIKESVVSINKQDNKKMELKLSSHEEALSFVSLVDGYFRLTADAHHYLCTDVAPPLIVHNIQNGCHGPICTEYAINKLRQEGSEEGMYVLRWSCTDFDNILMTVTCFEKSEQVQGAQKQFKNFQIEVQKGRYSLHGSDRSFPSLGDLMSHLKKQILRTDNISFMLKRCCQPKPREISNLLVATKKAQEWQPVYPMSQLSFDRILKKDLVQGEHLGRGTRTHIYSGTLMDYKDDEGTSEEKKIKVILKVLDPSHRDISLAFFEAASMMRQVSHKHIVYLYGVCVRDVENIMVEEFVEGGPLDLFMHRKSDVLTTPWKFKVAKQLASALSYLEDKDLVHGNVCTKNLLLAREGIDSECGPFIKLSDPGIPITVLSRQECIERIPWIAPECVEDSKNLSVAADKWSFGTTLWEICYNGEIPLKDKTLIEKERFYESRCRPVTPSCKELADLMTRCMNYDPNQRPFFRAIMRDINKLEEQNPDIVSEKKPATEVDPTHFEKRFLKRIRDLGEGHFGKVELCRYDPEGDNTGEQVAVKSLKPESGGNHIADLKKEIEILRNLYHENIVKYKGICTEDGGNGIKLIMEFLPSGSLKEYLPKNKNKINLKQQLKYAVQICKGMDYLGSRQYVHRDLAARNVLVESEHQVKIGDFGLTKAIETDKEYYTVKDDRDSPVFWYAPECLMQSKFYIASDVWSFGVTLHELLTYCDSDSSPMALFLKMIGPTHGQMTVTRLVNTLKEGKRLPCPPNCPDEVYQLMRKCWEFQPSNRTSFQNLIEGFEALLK
Experimental: as §1, §2, §3, §4

AurA = biological target: T4, AurA (Homo sapiens, UniProt O14965); experiment: Probe-based (AX9989) kinase profiling in Jurkat lysate: AurA; conditions: for inhibition at 10 µM: screening concentration 10 μM
T4 construct: screened for activity against several kinases in Jurkat cells; endogenous in cells; host or cells: Jurkat cell lysate
T4 sequence (O14965 1-403): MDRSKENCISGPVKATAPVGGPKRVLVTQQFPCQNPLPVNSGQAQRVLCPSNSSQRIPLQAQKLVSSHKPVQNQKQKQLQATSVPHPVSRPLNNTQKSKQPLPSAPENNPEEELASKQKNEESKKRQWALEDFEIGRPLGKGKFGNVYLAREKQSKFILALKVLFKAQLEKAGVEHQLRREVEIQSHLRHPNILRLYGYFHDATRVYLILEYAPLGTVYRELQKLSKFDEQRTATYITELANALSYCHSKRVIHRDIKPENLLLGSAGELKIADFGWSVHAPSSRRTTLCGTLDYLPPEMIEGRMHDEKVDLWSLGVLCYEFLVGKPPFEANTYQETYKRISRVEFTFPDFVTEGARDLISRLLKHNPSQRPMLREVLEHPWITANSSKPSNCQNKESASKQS
Experimental: as §1, §2, §3, §4

ABL or ARG = experiment: Probe-based (AX9989) kinase profiling in Jurkat lysate: ABL or ARG
Experimental: as §1, §2, §3, §4

TAO2 = biological target: T5, TAO2 (Homo sapiens, UniProt Q9UL54); experiment: Probe-based (AX9989) kinase profiling in Jurkat lysate: TAO2; conditions: for inhibition at 10 µM: screening concentration 10 μM
T5 construct: screened for activity against several kinases in Jurkat cells; endogenous in cells; host or cells: Jurkat cell lysate
T5 sequence (Q9UL54 1-1235): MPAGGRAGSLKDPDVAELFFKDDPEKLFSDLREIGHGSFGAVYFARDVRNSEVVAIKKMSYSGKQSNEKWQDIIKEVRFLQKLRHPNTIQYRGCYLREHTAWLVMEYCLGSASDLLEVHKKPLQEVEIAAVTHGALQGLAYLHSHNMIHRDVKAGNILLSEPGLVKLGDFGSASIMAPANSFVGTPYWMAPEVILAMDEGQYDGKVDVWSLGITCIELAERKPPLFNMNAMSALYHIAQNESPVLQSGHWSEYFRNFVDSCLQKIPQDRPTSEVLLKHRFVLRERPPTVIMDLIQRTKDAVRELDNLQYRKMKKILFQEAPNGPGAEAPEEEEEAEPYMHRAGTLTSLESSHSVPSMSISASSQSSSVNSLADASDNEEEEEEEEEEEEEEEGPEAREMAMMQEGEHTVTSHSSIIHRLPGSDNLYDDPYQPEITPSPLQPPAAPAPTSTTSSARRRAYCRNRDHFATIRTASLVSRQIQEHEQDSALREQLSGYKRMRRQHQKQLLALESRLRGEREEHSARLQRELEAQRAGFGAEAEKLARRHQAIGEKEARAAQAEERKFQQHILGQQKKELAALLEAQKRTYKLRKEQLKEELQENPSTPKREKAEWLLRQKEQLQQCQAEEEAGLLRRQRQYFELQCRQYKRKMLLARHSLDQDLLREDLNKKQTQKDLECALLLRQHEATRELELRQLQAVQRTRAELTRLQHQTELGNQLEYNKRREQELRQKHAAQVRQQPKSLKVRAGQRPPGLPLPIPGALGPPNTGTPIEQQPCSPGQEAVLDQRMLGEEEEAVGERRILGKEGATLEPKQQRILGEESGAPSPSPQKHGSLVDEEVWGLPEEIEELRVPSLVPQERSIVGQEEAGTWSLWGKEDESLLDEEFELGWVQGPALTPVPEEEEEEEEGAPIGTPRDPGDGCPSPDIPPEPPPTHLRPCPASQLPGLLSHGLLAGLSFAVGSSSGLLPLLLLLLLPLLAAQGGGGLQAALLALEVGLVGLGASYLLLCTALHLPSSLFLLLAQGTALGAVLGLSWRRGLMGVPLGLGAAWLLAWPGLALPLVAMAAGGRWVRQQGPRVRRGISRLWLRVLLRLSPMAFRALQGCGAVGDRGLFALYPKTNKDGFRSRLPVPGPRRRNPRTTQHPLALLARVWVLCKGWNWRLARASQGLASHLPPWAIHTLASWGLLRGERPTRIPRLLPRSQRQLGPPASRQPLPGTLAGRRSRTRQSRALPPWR
Experimental: as §1, §2, §3, §4

[1] = read-out: ACK Inhibition % at indicated screening concentration
[2] = calculated from percent inhibition and screening concentration, AX9989 probe
[3] = read-out: ERK5 Inhibition % at indicated screening concentration
[4] = read-out: JAK1 Inhibition % at indicated screening concentration
[5] = read-out: AurA Inhibition % at indicated screening concentration
[6] = read-out: TAO2 Inhibition % at indicated screening concentration

T1 sequence (Q07912 whole entry): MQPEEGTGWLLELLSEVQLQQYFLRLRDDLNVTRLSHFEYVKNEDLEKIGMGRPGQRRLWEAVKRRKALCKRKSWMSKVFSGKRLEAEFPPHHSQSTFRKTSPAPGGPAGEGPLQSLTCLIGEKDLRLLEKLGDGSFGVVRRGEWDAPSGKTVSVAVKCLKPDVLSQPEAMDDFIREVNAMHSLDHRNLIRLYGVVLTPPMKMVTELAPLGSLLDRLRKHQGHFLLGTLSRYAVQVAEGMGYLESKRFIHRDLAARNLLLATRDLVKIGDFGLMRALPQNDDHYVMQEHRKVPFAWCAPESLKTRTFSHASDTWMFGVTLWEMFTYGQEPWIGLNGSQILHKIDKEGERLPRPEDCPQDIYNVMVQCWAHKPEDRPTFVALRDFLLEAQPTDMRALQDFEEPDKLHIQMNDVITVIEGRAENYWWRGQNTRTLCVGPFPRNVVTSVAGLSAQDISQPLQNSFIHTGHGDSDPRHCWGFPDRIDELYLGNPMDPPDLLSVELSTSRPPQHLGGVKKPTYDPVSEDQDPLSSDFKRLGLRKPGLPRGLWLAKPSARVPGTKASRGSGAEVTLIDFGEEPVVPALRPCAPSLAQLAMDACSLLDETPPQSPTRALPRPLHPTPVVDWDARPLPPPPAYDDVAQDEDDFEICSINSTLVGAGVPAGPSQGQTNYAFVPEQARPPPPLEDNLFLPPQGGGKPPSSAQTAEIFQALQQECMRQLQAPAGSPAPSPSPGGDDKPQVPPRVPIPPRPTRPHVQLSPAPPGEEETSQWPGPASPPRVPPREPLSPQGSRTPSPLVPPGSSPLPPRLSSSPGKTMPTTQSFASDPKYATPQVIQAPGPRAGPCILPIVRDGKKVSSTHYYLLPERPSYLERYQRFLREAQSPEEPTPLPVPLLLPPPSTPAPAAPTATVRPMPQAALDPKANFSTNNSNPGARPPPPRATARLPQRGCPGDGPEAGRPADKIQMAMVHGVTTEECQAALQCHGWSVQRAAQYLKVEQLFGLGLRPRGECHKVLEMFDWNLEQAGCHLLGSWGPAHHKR

Row | SMILES | inhibition at 10 µM (ACK; [1]) | AurB or AurC Inhibition % at indicated screening concentration (AurB or AurC; screening concentration 10 μM) | IC50 (ERK5; [2]) | inhibition at 10 µM (ERK5; [3]) | AMPKa1 or AMPKa2 Inhibition % at indicated screening concentration (AMPKa1 or AMPKa2; screening concentration 10 μM) | inhibition at 10 µM (JAK1; [4]) | inhibition at 10 µM (AurA; [5]) | ABL or ARG Inhibition % at indicated screening concentration (ABL or ARG; screening concentration 10 μM) | inhibition at 10 µM (TAO2; [6]) | also measured
1 | CCOc1cc(CO)ccc1Nc1cc2c(cn1)N(C)C(=O)c1ccccc1N2C [Compound 112] | – | – | – | – | – | – | – | – | – | inhibition at 0.1 µM (ACK; screening concentration 0.1 μM, read-out: Kinase inhibition % at indicated screening concentration: ACK): ≤ 35%; Kinase inhibition % at indicated screening concentration: AurB or AurC (AurB or AurC; screening concentration 0.1 μM): E (E is ≦35%); IC50 (ERK5; calculated from percent inhibition of AX9989 labeling and the screening concentration): 0.101 to 0.5 µM; inhibition at 0.1 µM (ERK5; screening concentration 0.1 μM, read-out: Kinase inhibition % at indicated screening concentration: ERK5): 35 to 50%; Kinase inhibition % at indicated screening concentration: AMPKa1 or AMPKa2 (AMPKa1 or AMPKa2; screening concentration 0.1 μM): E (E is ≦35%); inhibition at 0.1 µM (JAK1; screening concentration 0.1 μM, read-out: Kinase inhibition % at indicated screening concentration: JAK1): ≤ 35%; inhibition at 0.1 µM (AurA; screening concentration 0.1 μM, read-out: Kinase inhibition % at indicated screening concentration: AurA): ≤ 35%; Kinase inhibition % at indicated screening concentration: ABL or ARG (ABL or ARG; screening concentration 0.1 μM): E (E is ≦35%); inhibition at 0.1 µM (TAO2; screening concentration 0.1 μM, read-out: Kinase inhibition % at indicated screening concentration: TAO2): ≤ 35%
2 | CCOc1cc(C(=O)O)ccc1Nc1cc2c(cn1)N(C)S(=O)(=O)c1ccccc1N2C [Compound T1] | ≤ 35% | E (E is ≦35%) | > 0.5 µM | ≤ 35% | E (E is ≦35%) | ≤ 35% | ≤ 35% | E (E is ≦35%) | ≤ 35% | –
3 | CCOc1cc(C(=O)N2CCC(N3CCCC3)CC2)ccc1Nc1cc2c(cn1)N(C)S(=O)(=O)c1ccccc1N2C [Compound T2] | ≤ 35% | E (E is ≦35%) | > 0.5 µM | 35 to 50% | E (E is ≦35%) | ≤ 35% | ≤ 35% | E (E is ≦35%) | ≤ 35% | –
4 | CCOc1cc(C(=O)N2CC[C@@H](N(C)C)C2)ccc1Nc1cc2c(cn1)N(C)S(=O)(=O)c1ccccc1N2C [Compound T3] | ≤ 35% | E (E is ≦35%) | > 0.5 µM | ≤ 35% | E (E is ≦35%) | ≤ 35% | ≤ 35% | E (E is ≦35%) | ≤ 35% | –
5 | CCOc1cc(C(=O)N2CCOCC2)ccc1Nc1cc2c(cn1)N(C)C(=O)c1ccccc1S2 [Compound T82, 3-((2-ethoxy-4-(morpholine-4-carbonyl)phenyl)amino)-11-methylbenzo[f]pyrido[4,3-b][1,4]thiazepin-10(11H)-one] | – | – | 0.101 to 0.5 µM | – | – | – | – | – | – | inhibition at 1 µM (ACK; screening concentration 1 μM, read-out: ACK Inhibition % at indicated screening concentration): ≤ 35%; AurB or AurC Inhibition % at indicated screening concentration (AurB or AurC; screening concentration 1 μM): E (E is ≦35%); inhibition at 1 µM (ERK5; screening concentration 1 μM, read-out: ERK5 Inhibition % at indicated screening concentration): 50 to 75%; AMPKa1 or AMPKa2 Inhibition % at indicated screening concentration (AMPKa1 or AMPKa2; screening concentration 1 μM): E (E is ≦35%); inhibition at 1 µM (JAK1; screening concentration 1 μM, read-out: JAK1 Inhibition % at indicated screening concentration): ≤ 35%; inhibition at 1 µM (AurA; screening concentration 1 μM, read-out: AurA Inhibition % at indicated screening concentration): ≤ 35%; ABL or ARG Inhibition % at indicated screening concentration (ABL or ARG; screening concentration 1 μM): E (E is ≦35%); inhibition at 1 µM (TAO2; screening concentration 1 μM, read-out: TAO2 Inhibition % at indicated screening concentration): ≤ 35%
6 | CCOc1cc(C(=O)N2CCOCC2)ccc1Nc1cc2c(cn1)N(C)C(=O)c1ccccc1[S+]2[O-] (stereo not drawn) [Compound T83, 3-((2-ethoxy-4-(morpholine-4-carbonyl)phenyl)amino)-11-methylbenzo[f]pyrido[4,3-b][1,4]thiazepin-10(11H)-one 5-oxide] | ≤ 35% | E (E is ≦35%) | > 0.5 µM | 75 to 90% | E (E is ≦35%) | ≤ 35% | ≤ 35% | E (E is ≦35%) | ≤ 35% | –
7 | CCOc1cc(C(=O)N2CCOCC2)ccc1Nc1cc2c(cn1)N(C)C(=O)c1ccccc1S2(=O)=O [Compound T84] | ≤ 35% | E (E is ≦35%) | > 0.5 µM | 75 to 90% | E (E is ≦35%) | ≤ 35% | ≤ 35% | E (E is ≦35%) | ≤ 35% | –
